# Test system: Wistar (Crl:WI(Han)) rats
# Test: Mass spectrometry-based plasma metabolite profiling of rats treated with known inducers of thyroid function impairment
# Assay type: in vivo, rat
# Conditions: ratio of group medians vs controls
# From the text: At the beginning of the study the animals were 10-11 weeks old. Each dose group in the studies consisted of five rats per sex, and was compared with controls (10 rats per sex). […] The dose levels were chosen to show the typical overt (high dose) and slight (low dose) toxicological symptoms of the substances as described in the literature or in BASF internal study reports.
# Blood samples were withdrawn from the retro-orbital sinus in all rats under isoflurane anesthesia on study days 7, 14 and 28 after a fasting period of 16-20 hours.
# For mass spectrometry-based metabolite profiling analysis, plasma samples were extracted by a proprietary method which delivers a polar and a non-polar fraction. For GC-MS analysis, the non-polar fraction was treated with methanol under acidic conditions to yield the fatty acid methyl esters. Both fractions were further derivatised with Omethyl-hydroxyamine hydrochloride and pyridine to convert oxo groups to Omethyloximes and subsequently with a silylating agent before analysis.
# In LC-MS/MS analysis, both fractions were reconstituted in appropriate solvent mixtures. HPLC was performed by gradient elution on reversed phase separation columns. For mass spectrometric detection metanomics proprietary technology was applied, which allows target and high sensitivity MRM (Multiple Reaction Monitoring) profiling in parallel to a full screen analysis. […] Moreover, several hundred additional analytes giving a fingerprint of the sample were included in the methods.
# Following comprehensive analytical validation steps, the data for each analyte were normalized against data from pool samples. These samples were run in parallel through the whole process to account for process variability.
# The sex- and day-stratified heteroscedastic t-test (“Welch test”) was applied to compare treated groups with respective controls. p-Values and ratios of corresponding group medians were collected as metabolic profiles and fed into a database.
# [1] = female rats, fh7 (study day 7), Table 3
# [2] = female rats, fh14 (study day 14), Table 3
# [3] = female rats, fh28 (study day 28), Table 3
# [4] = female rats, fh7 (study day 7), Table 1
# [5] = female rats, fh14 (study day 14), Table 1
# [6] = female rats, fh28 (study day 28), Table 1
# [7] = male rats, mh7 (study day 7), Table 2
# [8] = male rats, mh14 (study day 14), Table 2
# [9] = male rats, mh28 (study day 28), Table 2
compound,measurement,setting,value
"Cc1c[nH]nc1C.O=P(O)(O)O [3,4-Dimethylpyrazolphosphat]","Arachidonic acid (C20:cis[58,11,14]4)",[1],1.36
same,Behenic acid (C22:0),[1],1.31
same,Cholesterol,[1],1.24
same,Cysteine,[1],0.78
same,"Docosahexaenoic acid (C22:cis[4,7,10,13,16,19]6)",[1],2.15
same,Dodecanol,[1],1.06
same,Eicosanoic acid (C20:0),[1],1.14
same,Glycerol phosphate,[1],1.29
same,Heptadecanoic acid (C17:0),[1],1.30
same,"Linoleic acid (C18:cis[9,12]2)",[1],1.29
same,Nervonic acid C24:(cis[15]1),[1],1.60
same,Palmitic acid (C16:0),[1],1.34
same,"Sphingomyelin (d18:1, C16:0)",[1],1.28
same,Stearic acid (C18:0),[1],1.30
same,Threonic acid,[1],1.51
same,"dihomo-gamma-Linolenic acid (C20:cis[8,11,14]3)",[1],1.36
same,erythro-Sphingosine,[1],1.40
same,"gamma-Linolenic acid (C18:cis[6,9,12]3)",[1],1.17
same,myo-Inositol-2-phosphate,[1],1.26
same,threo-Sphingosine,[1],1.27
same,"Arachidonic acid (C20:cis[58,11,14]4)",[2],1.75
same,Behenic acid (C22:0),[2],1.82
same,Cholesterol,[2],1.73
same,Cysteine,[2],1.29
same,"Docosahexaenoic acid (C22:cis[4,7,10,13,16,19]6)",[2],2.19
same,Dodecanol,[2],1.17
same,Eicosanoic acid (C20:0),[2],1.61
same,Glycerol phosphate,[2],1.69
same,Heptadecanoic acid (C17:0),[2],1.34
same,"Linoleic acid (C18:cis[9,12]2)",[2],1.29
same,Nervonic acid C24:(cis[15]1),[2],1.60
same,Palmitic acid (C16:0),[2],1.34
same,"Sphingomyelin (d18:1, C16:0)",[2],1.35
same,Stearic acid (C18:0),[2],1.71
same,Threonic acid,[2],1.17
same,"dihomo-gamma-Linolenic acid (C20:cis[8,11,14]3)",[2],1.80
same,erythro-Sphingosine,[2],1.90
same,"gamma-Linolenic acid (C18:cis[6,9,12]3)",[2],1.87
same,myo-Inositol-2-phosphate,[2],1.78
same,threo-Sphingosine,[2],1.72
same,"Arachidonic acid (C20:cis[58,11,14]4)",[3],1.67
same,Behenic acid (C22:0),[3],1.43
same,Cholesterol,[3],1.69
same,Cysteine,[3],1.00
same,"Docosahexaenoic acid (C22:cis[4,7,10,13,16,19]6)",[3],2.25
same,Dodecanol,[3],1.26
same,Eicosanoic acid (C20:0),[3],1.38
same,Glycerol phosphate,[3],1.55
same,Heptadecanoic acid (C17:0),[3],1.39
same,"Linoleic acid (C18:cis[9,12]2)",[3],1.44
same,Nervonic acid C24:(cis[15]1),[3],1.78
same,Palmitic acid (C16:0),[3],1.55
same,"Sphingomyelin (d18:1, C16:0)",[3],1.58
same,Stearic acid (C18:0),[3],1.62
same,Threonic acid,[3],1.36
same,"dihomo-gamma-Linolenic acid (C20:cis[8,11,14]3)",[3],1.86
same,erythro-Sphingosine,[3],1.54
same,"gamma-Linolenic acid (C18:cis[6,9,12]3)",[3],1.96
same,myo-Inositol-2-phosphate,[3],1.91
same,threo-Sphingosine,[3],1.58
CCCc1cc(=O)[nH]c(=S)[nH]1 [6-Propyl-2-thiouracil],5-O-Methylsphingosine,[4],1.40
same,Asparagine,[4],1.10
same,Behenic acid (C22:0),[4],1.27
same,Citrate,[4],0.87
same,"Docosahexaenoic acid (C22:cis[4,7,10,13,16]6)",[4],1.25
same,Glycine,[4],1.13
same,Ketoleucine,[4],1.05
same,Lysophosphatidylcholine (C18:2),[4],1.07
same,"Phosphatidylcholine (C16:1, C18:2)",[4],1.49
same,"Phosphatidylcholine (C18:2, C20:4)",[4],1.20
same,Pyruvate,[4],0.91
same,Tricosanoic acid (C23:0),[4],1.45
same,erythro-Sphingosine,[4],1.46
same,threo-Sphingosine,[4],1.24
same,"Sphingomyelin (d18:1, C16:0)","female rats, fh7 (study day 7), Table 1, first listing",1.01
same,"Sphingomyelin (d18:1, C16:0)","female rats, fh7 (study day 7), Table 1, second listing",1.26
same,5-O-Methylsphingosine,[5],1.36
same,Asparagine,[5],1.09
same,Behenic acid (C22:0),[5],1.14
same,Citrate,[5],0.69
same,"Docosahexaenoic acid (C22:cis[4,7,10,13,16]6)",[5],1.14
same,Glycine,[5],1.08
same,Ketoleucine,[5],0.80
same,Lysophosphatidylcholine (C18:2),[5],1.31
same,"Phosphatidylcholine (C16:1, C18:2)",[5],1.37
same,"Phosphatidylcholine (C18:2, C20:4)",[5],1.17
same,Pyruvate,[5],0.65
same,Tricosanoic acid (C23:0),[5],1.30
same,erythro-Sphingosine,[5],1.28
same,threo-Sphingosine,[5],1.29
same,"Sphingomyelin (d18:1, C16:0)","female rats, fh14 (study day 14), Table 1, first listing",1.46
same,"Sphingomyelin (d18:1, C16:0)","female rats, fh14 (study day 14), Table 1, second listing",1.33
same,5-O-Methylsphingosine,[6],1.20
same,Asparagine,[6],0.93
same,Behenic acid (C22:0),[6],1.23
same,Citrate,[6],0.66
same,"Docosahexaenoic acid (C22:cis[4,7,10,13,16]6)",[6],0.84
same,Glycine,[6],1.05
same,Ketoleucine,[6],0.89
same,Lysophosphatidylcholine (C18:2),[6],1.26
same,"Phosphatidylcholine (C16:1, C18:2)",[6],1.09
same,"Phosphatidylcholine (C18:2, C20:4)",[6],1.17
same,Pyruvate,[6],0.73
same,Tricosanoic acid (C23:0),[6],1.36
same,erythro-Sphingosine,[6],1.24
same,threo-Sphingosine,[6],1.34
same,"Sphingomyelin (d18:1, C16:0)","female rats, fh28 (study day 28), Table 1, first listing",1.62
same,"Sphingomyelin (d18:1, C16:0)","female rats, fh28 (study day 28), Table 1, second listing",1.29
same,3-O-Methylsphingosine,[7],1.57
same,5-O-Methylsphingosine,[7],1.50
same,14-Methyl-Pentadecanoic acid,[7],0.98
same,17-Methyloctadecanoic acid,[7],1.10
same,Arginine,[7],1.09
same,Cholesterol,[7],1.42
same,Citrate,[7],0.90
same,"Dihom-gamma-Linolenic acid (C20:cis[8,11,14]3)",[7],1.02
same,Lignoceric acid (C24:0),[7],1.28
same,Phytosphingosine,[7],1.11
same,"Sphingomyelin (d18:1, C16:0)",[7],1.35
same,Tricosanoic acid (C23:0),[7],1.28
same,alpha-Tocopherol,[7],1.20
same,erythro-Sphingosine,[7],1.46
same,threo-Sphingosine,[7],1.33
same,Glutamate,"male rats, mh7 (study day 7), Table 2, first listing",0.78
same,Glutamate,"male rats, mh7 (study day 7), Table 2, second listing",1.03
same,3-O-Methylsphingosine,[8],1.41
same,5-O-Methylsphingosine,[8],1.38
same,14-Methyl-Pentadecanoic acid,[8],0.86
same,17-Methyloctadecanoic acid,[8],0.67
same,Arginine,[8],1.10
same,Cholesterol,[8],0.98
same,Citrate,[8],0.73
same,"Dihom-gamma-Linolenic acid (C20:cis[8,11,14]3)",[8],1.33
same,Lignoceric acid (C24:0),[8],1.12
same,Phytosphingosine,[8],1.07
same,"Sphingomyelin (d18:1, C16:0)",[8],1.35
same,Tricosanoic acid (C23:0),[8],1.10
same,alpha-Tocopherol,[8],1.15
same,erythro-Sphingosine,[8],1.30
same,threo-Sphingosine,[8],1.23
same,Glutamate,"male rats, mh14 (study day 14), Table 2, first listing",0.78
same,Glutamate,"male rats, mh14 (study day 14), Table 2, second listing",0.70
same,3-O-Methylsphingosine,[9],1.90
same,5-O-Methylsphingosine,[9],1.82
same,14-Methyl-Pentadecanoic acid,[9],0.64
same,17-Methyloctadecanoic acid,[9],0.70
same,Arginine,[9],1.35
same,Cholesterol,[9],1.23
same,Citrate,[9],0.64
same,"Dihom-gamma-Linolenic acid (C20:cis[8,11,14]3)",[9],1.50
same,Lignoceric acid (C24:0),[9],1.16
same,Phytosphingosine,[9],1.20
same,"Sphingomyelin (d18:1, C16:0)",[9],1.71
same,Tricosanoic acid (C23:0),[9],1.55
same,alpha-Tocopherol,[9],1.12
same,erythro-Sphingosine,[9],1.47
same,threo-Sphingosine,[9],1.52
same,Glutamate,"male rats, mh28 (study day 28), Table 2, first listing",0.65
same,Glutamate,"male rats, mh28 (study day 28), Table 2, second listing",0.49

# — patent US20120132797A1, “MEANS AND METHODS FOR DIAGNOSING THYROID DISORDERS” (BASF SE, priority 2009, published 2012)
